Test results from patent publication US20100003217A1, “Compounds and Pharmaceutical Compositions for the Treatment of Viral Infections” (priority 2008, published 2010).
“And” between values parts separate entries of the source, which are not always exact repeats. Equal entries are not always repeated.

System: rat primary hepatocytes
Assay: Metabolic disposition of [^14C]-Compound 1 and [^14C]-2′-C-methyl guanosine in rat primary hepatocytes (incubation medium, cellular extracts, nucleotide levels)
Type: in vitro ADME, Sprague Dawley rat
Conditions: for AUC (area under the concentration-time curve) of Compound 7 levels: 0-24 h
Summary of the method: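 Rat, monkey or human primary hepatocytes on collagen I plates (1.6 million cells/mL) were incubated at 37° C with 1 or 10 μM C-8 [^14C]-labelled compound or 2′-C-methyl guanosine for 1, 4, 8 and 24 hours. Medium and 70% methanol cell extracts were analysed by LSC and radio-HPLC. Nucleotides were identified by alkaline phosphatase treatment and retention-time matching to standards.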

[1] = rat hepatocytes (Rs458), 1 μM [^14C]-Compound 1, 1 h
[2] = rat hepatocytes (Rs458), 1 μM [^14C]-Compound 1, 8 h
[3] = rat hepatocytes (Rs458), 1 μM [^14C]-Compound 1, 24 h
[4] = rat hepatocytes Rs448, 10 μM [^14C]-2′-C-methyl guanosine, 1 h
[5] = rat hepatocytes Rs448, 10 μM [^14C]-2′-C-methyl guanosine, 4 h
[6] = rat hepatocytes Rs448, 10 μM [^14C]-2′-C-methyl guanosine, 8 h
[7] = rat hepatocytes Rs448, 10 μM [^14C]-2′-C-methyl guanosine, 24 h
[8] = rat hepatocytes Rs458, 1 μM [^14C]-2′-C-methyl guanosine, 1 h
[9] = rat hepatocytes Rs458, 1 μM [^14C]-2′-C-methyl guanosine, 8 h
[10] = rat hepatocytes Rs458, 1 μM [^14C]-2′-C-methyl guanosine, 24 h
[11] = rat hepatocytes Rs458, 10 μM [^14C]-2′-C-methyl guanosine, 1 h
[12] = rat hepatocytes Rs458, 10 μM [^14C]-2′-C-methyl guanosine, 4 h
[13] = rat hepatocytes Rs458, 10 μM [^14C]-2′-C-methyl guanosine, 8 h
[14] = rat hepatocytes Rs458, 10 μM [^14C]-2′-C-methyl guanosine, 24 h

C[C@@]1(O)[C@H](O)[C@@H](COP(=O)(O)OP(=O)(O)OP(=O)(O)O)O[C@H]1n1cnc2c(=O)[nH]c(N)nc21 [Compound 7, [(2R)-2-methyl-β-D-ribofuranosyl]guanine 5′-triphosphate]
metabolites observed in cellular extracts (% of total radioactivity) (rat hepatocytes (Rs448, Rs458), 10 μM [^14C]-Compound 1, 1 h, listed as Compd 7): 59.0% and 50.8%
metabolites observed in cellular extracts (% of total radioactivity) (rat hepatocytes (Rs448, Rs458), 10 μM [^14C]-Compound 1, 4 h, listed as Compd 7): 70.9% and 69.1%
metabolites observed in cellular extracts (% of total radioactivity) (rat hepatocytes (Rs448, Rs458), 10 μM [^14C]-Compound 1, 8 h, listed as Compd 7): 73.0% and 72.5%
metabolites observed in cellular extracts (% of total radioactivity) (rat hepatocytes (Rs448, Rs458), 10 μM [^14C]-Compound 1, 24 h, listed as Compd 7): 66.2% and 54.5%
2′-C-methyl guanosine nucleotide levels in cellular extracts [1]: 80.0 pmol/million cells
metabolites observed in cellular extracts (% of total radioactivity) [1]: 50.5%
2′-C-methyl guanosine nucleotide levels in cellular extracts [2]: 238 pmol/million cells
metabolites observed in cellular extracts (% of total radioactivity) [2]: 77.6%
2′-C-methyl guanosine nucleotide levels in cellular extracts [3]: 103 pmol/million cells
metabolites observed in cellular extracts (% of total radioactivity) [3]: 62.1%
Compound 7 AUC0-24h (rat hepatocytes (n=1), 1 μM [^14C]-2′-C-methyl guanosine): 458 pmol*h/million cells
Compound 7 AUC0-24h (rat hepatocytes (n=1), 1 μM [^14C]-Compound 1): 3,881 pmol*h/million cells
2′-C-methyl guanosine nucleotide levels in cellular extracts (rat hepatocytes Rs448, 10 μM [^14C]-2′-C-methyl guanosine, 0 h): 0 pmol/million cells
AUC (area under the concentration-time curve) of Compound 7 levels (rat hepatocytes Rs448, 10 μM [^14C]-2′-C-methyl guanosine): 5906 pmol * hr/million cells
2′-C-methyl guanosine nucleotide levels in cellular extracts [4]: 28.0 pmol/million cells
Major metabolites observed in cellular extracts (% of total radioactivity) [4]: 5.21 % of total radioactivity
2′-C-methyl guanosine nucleotide levels in cellular extracts [5]: 141 pmol/million cells
Major metabolites observed in cellular extracts (% of total radioactivity) [5]: 17.9 % of total radioactivity
2′-C-methyl guanosine nucleotide levels in cellular extracts [6]: 258 pmol/million cells and 287 pmol/million cells
Major metabolites observed in cellular extracts (% of total radioactivity) [6]: 24.1 % of total radioactivity
2′-C-methyl guanosine nucleotide levels in cellular extracts [7]: 347 pmol/million cells
Major metabolites observed in cellular extracts (% of total radioactivity) [7]: 35.6 % of total radioactivity
2′-C-methyl guanosine nucleotide levels in cellular extracts (rat hepatocytes Rs448, 10 μM [^14C]-Compound 1, 0 h): 0 pmol/million cells
AUC (area under the concentration-time curve) of Compound 7 levels (rat hepatocytes Rs448, 10 μM [^14C]-Compound 1): 31568 pmol * hr/million cells
2′-C-methyl guanosine nucleotide levels in cellular extracts (rat hepatocytes Rs448, 10 μM [^14C]-Compound 1, 1 h): 580 pmol/million cells
2′-C-methyl guanosine nucleotide levels in cellular extracts (rat hepatocytes Rs448, 10 μM [^14C]-Compound 1, 4 h): 1429 pmol/million cells
2′-C-methyl guanosine nucleotide levels in cellular extracts (rat hepatocytes Rs448, 10 μM [^14C]-Compound 1, 8 h): 1791 pmol/million cells
2′-C-methyl guanosine nucleotide levels in cellular extracts (rat hepatocytes Rs448, 10 μM [^14C]-Compound 1, 24 h): 937 pmol/million cells
AUC (area under the concentration-time curve) of Compound 7 levels (rat hepatocytes Rs458, 1 μM [^14C]-2′-C-methyl guanosine): 458 pmol * hr/million cells
2′-C-methyl guanosine nucleotide levels in cellular extracts [8]: 2.60 pmol/million cells
Major metabolites observed in cellular extracts (% of total radioactivity) [8]: 4.56 % of total radioactivity
2′-C-methyl guanosine nucleotide levels in cellular extracts [9]: 20.1 pmol/million cells
Major metabolites observed in cellular extracts (% of total radioactivity) [9]: 26.1 % of total radioactivity
2′-C-methyl guanosine nucleotide levels in cellular extracts [10]: 27.0 pmol/million cells
Major metabolites observed in cellular extracts (% of total radioactivity) [10]: 34.1 % of total radioactivity
AUC (area under the concentration-time curve) of Compound 7 levels (rat hepatocytes Rs458, 1 μM [^14C]-Compound 1): 3881 pmol * hr/million cells
2′-C-methyl guanosine nucleotide levels in cellular extracts (rat hepatocytes Rs458, 10 μM [^14C]-2′-C-methyl guanosine, 0 h): 0 pmol/million cells
AUC (area under the concentration-time curve) of Compound 7 levels (rat hepatocytes Rs458, 10 μM [^14C]-2′-C-methyl guanosine): 5384 pmol * hr/million cells
2′-C-methyl guanosine nucleotide levels in cellular extracts [11]: 23.0 pmol/million cells
Major metabolites observed in cellular extracts (% of total radioactivity) [11]: 4.42 % of total radioactivity
2′-C-methyl guanosine nucleotide levels in cellular extracts [12]: 113 pmol/million cells
Major metabolites observed in cellular extracts (% of total radioactivity) [12]: 16.2 % of total radioactivity
2′-C-methyl guanosine nucleotide levels in cellular extracts [13]: 239 pmol/million cells
Major metabolites observed in cellular extracts (% of total radioactivity) [13]: 27.0 % of total radioactivity
2′-C-methyl guanosine nucleotide levels in cellular extracts [14]: 319 pmol/million cells
Major metabolites observed in cellular extracts (% of total radioactivity) [14]: 33.9 % of total radioactivity
2′-C-methyl guanosine nucleotide levels in cellular extracts (rat hepatocytes Rs458, 10 μM [^14C]-Compound 1, 0 h): 0 pmol/million cells
AUC (area under the concentration-time curve) of Compound 7 levels (rat hepatocytes Rs458, 10 μM [^14C]-Compound 1): 28123 pmol * hr/million cells
2′-C-methyl guanosine nucleotide levels in cellular extracts (rat hepatocytes Rs458, 10 μM [^14C]-Compound 1, 1 h): 534 pmol/million cells
2′-C-methyl guanosine nucleotide levels in cellular extracts (rat hepatocytes Rs458, 10 μM [^14C]-Compound 1, 4 h): 1347 pmol/million cells
2′-C-methyl guanosine nucleotide levels in cellular extracts (rat hepatocytes Rs458, 10 μM [^14C]-Compound 1, 8 h): 1618 pmol/million cells
2′-C-methyl guanosine nucleotide levels in cellular extracts (rat hepatocytes Rs458, 10 μM [^14C]-Compound 1, 24 h): 770 pmol/million cells
Compound 7 maximal levels (rat hepatocytes, 1 μM [^14C]-Compound 1): 103 pmol/million cells
Maximum Compound 7 levels (rat hepatocytes, 10 μM [^14C]-2′-C-methyl guanosine, at 24 hours): 249 pmol/million cells
Compound 7 AUC0-24h (rat hepatocytes, 10 μM [^14C]-Compound 1): 29,846 pmol*h/million cells
Compound 7 maximum levels (rat hepatocytes, 10 μM [^14C]-Compound 1, at 8 hours): 1,705 pmol/million cells

C[C@@]1(O)[C@H](O)[C@@H](CO)O[C@H]1n1cnc2c(=O)[nH]c(N)nc21 [2′-C-methyl guanosine, 9-(2-C-methyl-β-D-ribofuranosyl)guanine, reference compound]
metabolites observed in cellular extracts (% of total radioactivity) (rat hepatocytes (Rs448, Rs458), 10 μM [^14C]-Compound 1, 1 h): 1.84% and 1.75%
metabolites observed in cellular extracts (% of total radioactivity) (rat hepatocytes (Rs448, Rs458), 10 μM [^14C]-Compound 1, 4 h): 5.04% and 3.78%
metabolites observed in cellular extracts (% of total radioactivity) (rat hepatocytes (Rs448, Rs458), 10 μM [^14C]-Compound 1, 8 h): 8.77% and 4.95%
metabolites observed in cellular extracts (% of total radioactivity) (rat hepatocytes (Rs448, Rs458), 10 μM [^14C]-Compound 1, 24 h): 14.7% and 16.9%
metabolites observed in medium (% of total radioactivity) (rat hepatocytes (Rs458), 1 μM [^14C]-Compound 1, 0 h): BLD
metabolites observed in cellular extracts (% of total radioactivity) [1]: 1.01%
metabolites observed in medium (% of total radioactivity) [1]: BLD
metabolites observed in cellular extracts (% of total radioactivity) [2]: 5.58%
metabolites observed in medium (% of total radioactivity) [2]: 29.4%
metabolites observed in cellular extracts (% of total radioactivity) [3]: 13.1%
metabolites observed in medium (% of total radioactivity) [3]: 58% and 58.3%
metabolites observed in medium (% of total radioactivity) (rat hepatocytes (lots Rs448, Rs458), 10 μM [^14C]-Compound 1, 0 h): BLD^b and BLD
metabolites observed in medium (% of total radioactivity) (rat hepatocytes (lots Rs448, Rs458), 10 μM [^14C]-Compound 1, 1 h): 0.8% and 0.5%
metabolites observed in medium (% of total radioactivity) (rat hepatocytes (lots Rs448, Rs458), 10 μM [^14C]-Compound 1, 4 h): 17.5% and 10.1% and 17.0% and 10.0%
metabolites observed in medium (% of total radioactivity) (rat hepatocytes (lots Rs448, Rs458), 10 μM [^14C]-Compound 1, 8 h): 41.5% and 23.4% and 41.0% and 23.0%
metabolites observed in medium (% of total radioactivity) (rat hepatocytes (lots Rs448, Rs458), 10 μM [^14C]-Compound 1, 24 h): 67% and 68.5% and 65.3% and 69.0% and 65.0%
Major metabolites observed in cellular extracts (% of total radioactivity) [4]: 93.6 % of total radioactivity
Major metabolites observed in cellular extracts (% of total radioactivity) [5]: 78.6 % of total radioactivity
Major metabolites observed in cellular extracts (% of total radioactivity) [6]: 69.2 % of total radioactivity
Major metabolites observed in cellular extracts (% of total radioactivity) [7]: 51.5 % of total radioactivity
Major metabolites observed in cellular extracts (% of total radioactivity) [8]: 93.4 % of total radioactivity
Major metabolites observed in cellular extracts (% of total radioactivity) [9]: 68.7 % of total radioactivity
Major metabolites observed in cellular extracts (% of total radioactivity) [10]: 49.2 % of total radioactivity
Major metabolites observed in cellular extracts (% of total radioactivity) [11]: 94.5 % of total radioactivity
Major metabolites observed in cellular extracts (% of total radioactivity) [12]: 79.8 % of total radioactivity
Major metabolites observed in cellular extracts (% of total radioactivity) [13]: 67.2 % of total radioactivity
Major metabolites observed in cellular extracts (% of total radioactivity) [14]: 47.1 % of total radioactivity
